For 7 compounds, TGI results are on record in PubChem BioAssay (NCI).

The structures appear in SMILES notation.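 A five-concentration, 48-hour dose response in 96-well plates underlies each endpoint, interpolated linearly between surrounding concentrations. TGI: total growth inhibition.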

Among the test systems are OVCAR-3 ovarian; SK-MEL-2 melanoma; SF-268 CNS; OVCAR-8 ovarian; A549 NSCLC; SNB-19 CNS; ACHN renal; 786-0 renal; NCI-H23 lung; SF-539 CNS; NCI/ADR-RES ovarian; SNB-75 CNS; SF-295 CNS; OVCAR-4 ovarian; COLO 205 colon; SK-OV-3 ovarian; MDA-MB-435; T-47D breast; NCI-H226 lung; HT29 colon.
Common to all, as to experiment: DTP human tumour cell line panel, 48 h

As usually defined, the TGI is the concentration giving total growth inhibition. Read a high TGI as less potent growth arrest. For `COC(=O)[C@H](Cc1ccccc1)NC(=O)NCCN(CCNC(=O)N[C@@H](Cc1ccccc1)C(=O)OC)C(=O)N[C@@H](Cc1ccccc1)C(=O)OC`, the TGI in the assay on OVCAR-3 ovarian is 39.7 µM; in the assay with SK-MEL-2 melanoma it was 42.5 µM; in the assay with SF-268 CNS, 31.5 µM; in the assay with OVCAR-8 ovarian, 34.6 µM; with A549 NSCLC it was 54.3 µM; with SNB-19 CNS, 48.2 µM. Moreover, the TGI is 51.6 µM in the assay with ACHN renal; 34.1 µM with 786-0 renal; 36.1 µM in the assay on NCI-H23 lung; 47.1 µM in the assay on SF-539 CNS; over 100 µM in the assay with NCI/ADR-RES ovarian; 35.9 µM in the assay with SNB-75 CNS. The TGI was 35.3 µM in the assay with SF-295 CNS; 30 µM with OVCAR-4 ovarian; 40.9 µM with COLO 205 colon; over 60.8 µM with SK-OV-3 ovarian; 45 µM in the assay with MDA-MB-435; 49.6 µM with T-47D breast. In the assay with NCI-H226 lung, this compound yielded a TGI of 34.6 µM.
As to `NC(=O)c1cc2ccccc2oc1=Nc1ccccc1`, the TGI in the assay with OVCAR-3 ovarian, with SK-MEL-2 melanoma, in the assay on SF-268 CNS, in the assay with HT29 colon, with OVCAR-8 ovarian and in the assay on A549 NSCLC was over 100 µM in each case. The TGI in the assay on SNB-19 CNS, in the assay with ACHN renal, in the assay on 786-0 renal, in the assay with NCI-H23 lung, in the assay on SF-539 CNS and in the assay on NCI/ADR-RES ovarian was over 100 µM in each case. Moreover, the TGI in the assay on SNB-75 CNS, in the assay on OVCAR-4 ovarian, in the assay with COLO 205 colon, with SK-OV-3 ovarian, in the assay with MDA-MB-435 and in the assay with T-47D breast was over 100 µM each time. The same compound registered a TGI in the assay with NCI-H226 lung of over 100 µM.
Consider `COc1ccc(/C=C2/C(C)=NN(c3cccc(Cl)c3)/C2=N/c2nc3ccccc3s2)cc1`, for which the TGI with OVCAR-3 ovarian amounted to 48.8 µM; with SK-MEL-2 melanoma it was 41.8 µM; in the assay with SF-268 CNS, 66.9 µM; in the assay with HT29 colon it was 37.8 µM; with OVCAR-8 ovarian, 49.3 µM; in the assay on ACHN renal, 42.2 µM. In addition, the TGI was 38.1 µM in the assay with 786-0 renal; 34.6 µM with NCI-H23 lung; 60.7 µM with SF-539 CNS; 71.6 µM with NCI/ADR-RES ovarian; 86.6 µM in the assay with SNB-75 CNS; 49.5 µM in the assay on SF-295 CNS. Moreover, the TGI was over 100 µM in the assay on OVCAR-4 ovarian; 63.7 µM with SK-OV-3 ovarian; over 100 µM with MDA-MB-435; over 100 µM in the assay on T-47D breast; 56.4 µM in the assay on NCI-H226 lung.
On to `Cc1occc1C(=S)Nc1ccc(Cl)c(C(=O)OCC(F)(F)F)c1`, for which the total growth inhibition concentration (TGI) in the assay with OVCAR-3 ovarian is 81.4 µM; in the assay with SK-MEL-2 melanoma, 44.9 µM; in the assay with SF-268 CNS, 42.3 µM; in the assay with HT29 colon, 33.7 µM; in the assay on OVCAR-8 ovarian it was 36.2 µM; with A549 NSCLC it was 58.4 µM. Moreover, the TGI in the assay on SNB-19 CNS was 43.9 µM; in the assay with ACHN renal, 54.1 µM; with 786-0 renal, 34.6 µM; in the assay on NCI-H23 lung, 51.4 µM; with SF-539 CNS, 18.1 µM; with NCI/ADR-RES ovarian it was 40.1 µM. Moreover, the TGI in the assay with SNB-75 CNS worked out at 49.4 µM; in the assay on OVCAR-4 ovarian it was 45.9 µM; with COLO 205 colon, 67.6 µM; with SK-OV-3 ovarian, 51.2 µM; with MDA-MB-435, 37.4 µM; in the assay with T-47D breast, 72.4 µM. Besides, the TGI in the assay on NCI-H226 lung amounted to 35.9 µM.
On to `C[C@H]1[C@H](C)N(Cc2ccccc2)P(=O)(C(O)/C=C/c2ccccc2)N1Cc1ccccc1` (stereo not given in full), for which the TGI in the assay on SK-MEL-2 melanoma is 9.66 µM; with SF-268 CNS it was over 25 µM; in the assay with HT29 colon, 12.3 µM; in the assay with OVCAR-8 ovarian, over 25 µM; in the assay on A549 NSCLC, over 25 µM; with SNB-19 CNS, over 25 µM. The TGI in the assay on ACHN renal is over 25 µM; in the assay on 786-0 renal, 10.9 µM; with NCI-H23 lung, over 25 µM; in the assay on SF-539 CNS, 10.2 µM; in the assay with NCI/ADR-RES ovarian, over 25 µM; with SNB-75 CNS it was 17.9 µM. The TGI is 20.1 µM in the assay with SF-295 CNS; 15 µM in the assay with OVCAR-4 ovarian; 17.4 µM with COLO 205 colon; over 25 µM in the assay with SK-OV-3 ovarian; 8.79 µM with MDA-MB-435; 22.9 µM in the assay on T-47D breast. Besides, the TGI with NCI-H226 lung came to 16.9 µM.
Regarding `CCOC(=O)CCC(NC(=O)Cc1ccc(Nc2nc3ccccc3nc2-c2ccccc2)cc1)C(=O)OCC` (stereo not given), the TGI in the assay on SK-MEL-2 melanoma was 72.7 µM; with SF-268 CNS, 23.7 µM; in the assay on HT29 colon, over 100 µM; with OVCAR-8 ovarian, over 100 µM; with A549 NSCLC, over 100 µM; with SNB-19 CNS, over 100 µM. Besides, the TGI in the assay with ACHN renal was over 100 µM; in the assay with 786-0 renal, over 100 µM; in the assay with NCI-H23 lung, over 100 µM; in the assay with SF-539 CNS, over 100 µM; in the assay with NCI/ADR-RES ovarian it was over 100 µM; with SNB-75 CNS, 38.3 µM. Besides, the TGI in the assay on SF-295 CNS was 48.4 µM; in the assay on OVCAR-4 ovarian, over 100 µM; in the assay with COLO 205 colon, over 100 µM; with SK-OV-3 ovarian it was over 100 µM; with MDA-MB-435, over 100 µM; in the assay with T-47D breast it was over 100 µM. This compound showed a TGI with NCI-H226 lung of over 100 µM.
For `COc1ccccc1C1CC(=O)CC(c2ccccc2OC)C12C(=O)NC(=S)NC2=O` (stereo not given), the TGI in the assay on OVCAR-3 ovarian, with SK-MEL-2 melanoma, in the assay on SF-268 CNS, in the assay on HT29 colon, with OVCAR-8 ovarian and in the assay with SNB-19 CNS was over 100 µM in each case. Further, the TGI with ACHN renal, in the assay on 786-0 renal, with NCI-H23 lung, with SF-539 CNS, with NCI/ADR-RES ovarian and in the assay on SNB-75 CNS was over 100 µM each time. The TGI in the assay on SF-295 CNS was over 100 µM; in the assay with OVCAR-4 ovarian it was over 100 µM; in the assay on COLO 205 colon it was over 100 µM; with MDA-MB-435 it was 94.3 µM; with T-47D breast, over 100 µM; in the assay with NCI-H226 lung it was over 100 µM.
